Assay results reported in US20150217046A1, “DOSING REGIMENS FOR SUBCUTANEOUSLY INFUSIBLE ACIDIC COMPOSITIONS” (SynAgile Corporation, priority 2012, published 2015).
Read-outs that look alike come from different tables or passages of the source.

Key:
[1] = Plasma LDEE concentrations after 8 hours of subcutaneous infusion (Example 8); set-up: species or system minipigs; conditions: minipig, in vivo
Description: In addition to measuring the LD plasma concentrations as described in Example 6, also the plasma LDEE concentrations were measured.

[2] = minipig A day 1: 90 mg LDEE (100 mg/mL, pH 3.7) s.c. continuous over 8 h, oral Lodosyn
[3] = minipig A day 8: 90 mg LDEE (100 mg/mL, pH 3.7) re-infused at contralateral site over 8 h, pre-infused with 15 units human hyaluronidase
[4] = minipig B day 1: 90 mg LDEE (100 mg/mL, pH 3.7) s.c. continuous over 8 h, oral Lodosyn
[5] = minipig C day 1: 560 mg LDEE (100 mg/mL, pH 3.7) split between 2 sites, s.c. continuous over 8 h, oral Lodosyn
[6] = minipig C day 8: 280 mg LDEE (100 mg/mL, pH 3.7) re-infused at one site, s.c. continuous over 8 h
[7] = minipig D day 1: 560 mg LDEE (100 mg/mL, pH 3.7) split between 2 sites, s.c. continuous over 8 h, oral Lodosyn
[8] = minipig D day 8: 560 mg LDEE (100 mg/mL, pH 3.7) re-infused at the 2 day 1 sites, s.c. continuous over 8 h
[9] = minipig E day 1: 560 mg LDEE (100 mg/mL, pH 3.7) split between 2 sites, s.c. continuous over 8 h, pre-infused with 15 units human hyaluronidase
[10] = minipig F day 1: 560 mg LDEE (100 mg/mL, pH 3.7) split between 2 sites, s.c. continuous over 8 h, pre-infused with 15 units human hyaluronidase
[11] = minipig F day 8: 560 mg LDEE (100 mg/mL, pH 3.7) re-infused at 2 sites over 8 h, pre-infused with 15 units human hyaluronidase

## CCOC(=O)[C@@H](N)Cc1ccc(O)c(O)c1 [LDEE, levodopa ethyl ester]
Average of the 10 minipig/day infusions of Table 10
  Plasma LD, 480 minutes after start of infusion: 7,870 ng/mL
Minipig A day 1: 90 mg LDEE (100 mg/mL, pH 3.7) s.c. continuous over 8 h
  Plasma LD, 480 minutes after start of infusion: 1,051 ng/mL
[2]
  40 minutes Post-Infusion plasma LD: 1,093 ng/mL
  End of Infusion Plasma LD: 1,051 ng/mL
[3]
  40 minutes Post-Infusion plasma LD: 691 ng/mL
  100 minutes Post-Infusion plasma LD: 342 ng/mL
  170 minutes Post-Infusion plasma LD: 185 ng/mL
  End of Infusion Plasma LD: 679 ng/mL
Minipig A day 8: 90 mg LDEE (100 mg/mL, pH 3.7), contralateral site, 8 h, hyaluronidase pre-infusion
  Plasma LD, 480 minutes after start of infusion: 679 ng/mL
Minipig B day 1: 90 mg LDEE (100 mg/mL, pH 3.7) s.c. continuous over 8 h
  Plasma LD, 480 minutes after start of infusion: 1,351 ng/mL
[4]
  40 minutes Post-Infusion plasma LD: 1,010 ng/mL
  100 minutes Post-Infusion plasma LD: 686 ng/mL
  170 minutes Post-Infusion plasma LD: 376 ng/mL
  End of Infusion Plasma LD: 1,351 ng/mL
Minipig C day 1: 560 mg LDEE (100 mg/mL, pH 3.7) split between 2 sites, s.c. continuous over 8 h
  Plasma LD, 480 minutes after start of infusion: 11,377 ng/mL
[5]
  40 minutes Post-Infusion plasma LD: 11,006 ng/mL
  100 minutes Post-Infusion plasma LD: 6,010 ng/mL
  170 minutes Post-Infusion plasma LD: 5,754 ng/mL
  End of Infusion Plasma LD: 11,377 ng/mL
Minipig C day 8: 280 mg LDEE (100 mg/mL, pH 3.7) at one site, 8 h
  Plasma LD, 480 minutes after start of infusion: 4739 ng/mL
[6]
  40 minutes Post-Infusion plasma LD: 4551 ng/mL
  100 minutes Post-Infusion plasma LD: 3357 ng/mL
  170 minutes Post-Infusion plasma LD: 2306 ng/mL
  End of Infusion Plasma LD: 4739 ng/mL
Minipig D day 1: 560 mg LDEE (100 mg/mL, pH 3.7) split between 2 sites, s.c. continuous over 8 h
  Plasma LD, 480 minutes after start of infusion: 15,356 ng/mL
[7]
  40 minutes Post-Infusion plasma LD: 17,055 ng/mL
  100 minutes Post-Infusion plasma LD: 9,790 ng/mL
  170 minutes Post-Infusion plasma LD: 6,942 ng/mL
  End of Infusion Plasma LD: 15,356 ng/mL
Minipig D day 8: 560 mg LDEE (100 mg/mL, pH 3.7) re-infused at the 2 day 1 sites, 8 h
  Plasma LD, 480 minutes after start of infusion: 8075 ng/mL
[8]
  40 minutes Post-Infusion plasma LD: 8350 ng/mL
  100 minutes Post-Infusion plasma LD: 5928 ng/mL
  170 minutes Post-Infusion plasma LD: 4219 ng/mL
  End of Infusion Plasma LD: 8075 ng/mL
Minipig D, Day 1 infusion
  increase in plasma LD concentration 40 minutes after cessation of infusion: 1,699 ng/mL
[9]
  40 minutes Post-Infusion plasma LD: 11,918 ng/mL
  100 minutes Post-Infusion plasma LD: 5,464 ng/mL
  170 minutes Post-Infusion plasma LD: 7,329 ng/mL
  End of Infusion Plasma LD: 14,212 ng/mL
Minipig E day 1: 560 mg LDEE (100 mg/mL, pH 3.7), 2 sites, 8 h, hyaluronidase pre-infusion
  Plasma LD, 480 minutes after start of infusion: 14,212 ng/mL
[10]
  40 minutes Post-Infusion plasma LD: 12,310 ng/mL
  100 minutes Post-Infusion plasma LD: 3,046 ng/mL
  170 minutes Post-Infusion plasma LD: 5,903 ng/mL
  End of Infusion Plasma LD: 12,982 ng/mL
Minipig F day 1: 560 mg LDEE (100 mg/mL, pH 3.7), 2 sites, 8 h, hyaluronidase pre-infusion
  Plasma LD, 480 minutes after start of infusion: 12,982 ng/mL
[11]
  40 minutes Post-Infusion plasma LD: 8223 ng/mL
  100 minutes Post-Infusion plasma LD: 6231 ng/mL
  170 minutes Post-Infusion plasma LD: 3650 ng/mL
  End of Infusion Plasma LD: 8880 ng/mL
Minipig F day 8: 560 mg LDEE (100 mg/mL, pH 3.7), 2 sites, 8 h, hyaluronidase pre-infusion
  Plasma LD, 480 minutes after start of infusion: 8880 ng/mL
[1]
  Plasma LDEE, 480 minutes after start of infusion: 6.9 ng/mL
